Assay results from PMC8430323, “Microbial Enzymatic Synthesis of Amikacin Analogs With Antibacterial Activity Against Multidrug-Resistant Pathogens” (Frontiers in Microbiology, 2021).

What was measured:
[1] = molecular target: T1, AAC(6′)-APH(2^″) (Staphylococcus aureus, UniProt P0A0C1); assay: UPLC-qTOF-HR-MS of […]'-N-acylation product, structure confirmed by NMR; type: biochemical; settings: acyl donor; one-pot with GenN, amikacin 2 mM, SAM 2 mM, 50 mM Tris-HCl pH 7.5, 30 °C, 12 h, enzyme 500 μM
T1 construct: gene aacA-aphD; codon-optimized synthetic gene in pET15b, His-tagged, expressed in E. coli BL21(DE3), Ni-NTA purified; bifunctional enzyme

[2] = molecular target: T2, GenN (Micromonospora echinospora, UniProt Q2MG72); assay: UPLC-qTOF-HR-MS of methylation product, structure confirmed by NMR; type: biochemical; settings: SAM 2 mM, amikacin 2 mM, 50 mM Tris-HCl pH 7.5, 30 °C, 12 h, enzyme 500 μM
T2 construct: codon-optimized synthetic gene in pJExpress404, His-tagged, expressed in E. coli BL21(DE3), Ni-NTA purified
T2 sequence (Q2MG72 1-321): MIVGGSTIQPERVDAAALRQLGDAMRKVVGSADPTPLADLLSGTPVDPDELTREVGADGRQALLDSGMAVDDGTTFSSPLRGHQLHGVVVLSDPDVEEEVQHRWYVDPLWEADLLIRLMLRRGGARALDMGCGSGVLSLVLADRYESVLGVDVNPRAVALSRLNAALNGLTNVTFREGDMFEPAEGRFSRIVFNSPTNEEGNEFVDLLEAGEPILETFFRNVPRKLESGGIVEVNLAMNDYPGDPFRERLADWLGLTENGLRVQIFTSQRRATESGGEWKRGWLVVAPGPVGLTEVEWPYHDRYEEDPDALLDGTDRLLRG

T1 sequence (P0A0C1 whole entry): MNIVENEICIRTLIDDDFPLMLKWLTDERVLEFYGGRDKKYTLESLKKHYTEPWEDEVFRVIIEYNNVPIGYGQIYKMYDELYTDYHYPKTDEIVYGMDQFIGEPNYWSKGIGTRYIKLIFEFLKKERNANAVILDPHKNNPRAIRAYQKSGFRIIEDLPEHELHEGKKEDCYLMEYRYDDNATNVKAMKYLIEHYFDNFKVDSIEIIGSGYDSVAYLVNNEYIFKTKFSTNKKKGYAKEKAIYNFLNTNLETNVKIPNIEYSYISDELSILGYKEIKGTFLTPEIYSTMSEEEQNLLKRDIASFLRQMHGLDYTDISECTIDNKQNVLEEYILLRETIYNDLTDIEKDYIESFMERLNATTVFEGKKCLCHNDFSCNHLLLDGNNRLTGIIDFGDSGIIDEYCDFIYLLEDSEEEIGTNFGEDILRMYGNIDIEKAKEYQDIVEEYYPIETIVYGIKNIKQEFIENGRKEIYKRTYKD

Structure (SMILES) | conversion yield [1] | conversion yield [2]
CCC(=O)SCCNC(=O)CCNC(=O)[C@H](O)C(C)(C)COP(=O)(O)OP(=O)(O)OC[C@H]1O[C@@H](n2cnc3c(N)ncnc32)[C@H](O)[C@@H]1OP(=O)(O)O [propionyl-CoA] | Incubation with acetyl-CoA and propionyl-CoA as cosubstrates led to the formation of new UPLC peaks | 
NCC[C@H](O)C(=O)N[C@@H]1C[C@H](N)[C@@H](O[C@H]2O[C@H](CN)[C@@H](O)[C@H](O)[C@H]2O)[C@H](O)[C@H]1O[C@H]1O[C@H](CO)[C@@H](O)[C@H](N)[C@H]1O [amikacin] |  | Amikacin was an excellent substrate for SAM-dependent methylation by GenN
CC(=O)SCCNC(=O)CCNC(=O)[C@H](O)C(C)(C)COP(=O)(O)OP(=O)(O)OC[C@H]1O[C@@H](n2cnc3c(N)ncnc32)[C@H](O)[C@@H]1OP(=O)(O)O [acetyl-CoA] | Incubation with acetyl-CoA and propionyl-CoA as cosubstrates led to the formation of new UPLC peaks | 
